How the values were obtained:
[1] = tested on: rat; settings: Prenatal developmental toxicity study, sprague dawley, Oral, Gavage/Intubation, dose end: 15 GD
[2] = tested on: rat; settings: Prenatal developmental toxicity study, sprague dawley, Oral, Gavage/Intubation, dose end: 19 GD
[3] = tested on: rabbit; settings: Prenatal developmental toxicity study, new zealand white, Oral, Gavage/Intubation, dose end: 28 GD
[4] = tested on: rabbit; settings: Prenatal developmental toxicity study, new zealand white, Oral, Gavage/Intubation, dose end: 28 GD; remark: listed apart in the source
[5] = tested on: rat; settings: Peri- and post-natal toxicity study (Segment III), sprague dawley, Oral, Gavage/Intubation, dose end: 40 PND
[6] = tested on: dog; settings: Prenatal developmental toxicity study, beagle, Oral, Feed, dose end: 56 GD
[7] = group: developmental, developmental / developmental malformation / bone / absent + developmental / developmental malformation / bone / bipartite ossification + …
[8] = group: maternal, systemic / pathology gross / liver / enlarged + systemic / in life observation / clinical signs / salivation
[9] = group: developmental, developmental / developmental malformation / bone / fused cartilage + systemic / in life observation / body weight / fetal weight
[10] = group: maternal, systemic / in life observation / body weight / body weight gain + systemic / in life observation / food consumption / food consumption
[11] = group: maternal, systemic / in life observation / body weight / body weight gain + systemic / in life observation / food consumption / food consumption + …
[12] = group: developmental, developmental / developmental malformation / trunk / omphalocele + systemic / in life observation / body weight / fetal weight
[13] = group: maternal, reproductive / reproductive performance / resorptions / resorptions + systemic / in life observation / body weight / body weight + systemic…
[14] = group: developmental, developmental / developmental malformation / bone / delayed ossification + developmental / developmental malformation / bone / hemicentric…
[15] = group: developmental, developmental / developmental landmark / vaginal opening / vaginal opening
[16] = group: maternal, reproductive / reproductive performance / estrous cycle / abnormal + reproductive / reproductive performance / estrous cycle / corpora lutea
[17] = group: parental, systemic / clinical chemistry / estradiol / estradiol + systemic / organ weight / kidney / absolute + systemic / organ weight / ovary / …
[18] = group: developmental, developmental / offspring survival late / [other] / [other] + systemic / in life observation / body weight / offspring (pup) weight
[19] = group: maternal, reproductive / offspring survival early / dead fetuses / dead fetuses

## C[N+]12CN3CN(CN(C3)C1)C2.[Cl-]
[1]; [7]
  LEL: 1500 mg/kg/day
  LOAEL: 1500 mg/kg/day
  NEL: < 1500 mg/kg/day
  NOAEL: < 1500 mg/kg/day
[1]; group: maternal, systemic / in life observation / body weight / body weight + systemic / pathology gross / liver / enlarged
  LOAEL: 3000 mg/kg/day
[1]; group: maternal, systemic / in life observation / body weight / body weight + systemic / pathology gross / liver / enlarged + reproductive / reproductive …
  NOAEL: 1500 mg/kg/day
[1]; [8]
  LEL: 1500 mg/kg/day
  NEL: < 1500 mg/kg/day

## CC(C)c1ccc2cc(C(C)C)ccc2c1 [2,6-Diisopropylnaphthalene]
[2]; [9]
  LEL: 500 mg/kg/day
  LOAEL: 500 mg/kg/day
  NEL: 150 mg/kg/day
  NOAEL: 150 mg/kg/day
[2]; [10]
  LEL: 150 mg/kg/day
  LOAEL: 150 mg/kg/day
[2]; [11]
  NEL: 50 mg/kg/day
  NOAEL: 50 mg/kg/day

## O.O.[Cu] [Copper(II) hydroxide]
[3]; [12]
  LEL: 30 mg/kg/day
  LOAEL: > 30 mg/kg/day
  NEL: 15 mg/kg/day
  NOAEL: ≥ 30 mg/kg/day
[3]; [13]
  LOAEL: > 30 mg/kg/day
  NEL: 7.5 mg/kg/day
  NOAEL: ≥ 30 mg/kg/day
[3]; group: maternal, systemic / in life observation / body weight / body weight + systemic / in life observation / body weight / body weight gain + systemic / in…
  LEL: 15 mg/kg/day
[4]; [14]
  LEL: 18 mg/kg/day
  LOAEL: 18 mg/kg/day
  NEL: 9 mg/kg/day
  NOAEL: 9 mg/kg/day
[4]; [10]
  LEL: 9 mg/kg/day
  LOAEL: 9 mg/kg/day
[4]; [11]
  NEL: 6 mg/kg/day
  NOAEL: 6 mg/kg/day

## CC(C)OC(=O)c1ccc(O)cc1 [Isopropylparaben]
[5]; [15]
  LEL: 250 mg/kg/day
  LOAEL: > 1000 mg/kg/day
  NEL: 62.5 mg/kg/day
  NOAEL: ≥ 1000 mg/kg/day
[5]; [16]
  LEL: 1000 mg/kg/day
  LOAEL: > 1000 mg/kg/day
  NEL: 250 mg/kg/day
  NOAEL: ≥ 1000 mg/kg/day
[5]; [17]
  LEL: 1000 mg/kg/day
  LOAEL: > 1000 mg/kg/day
  NEL: 250 mg/kg/day
  NOAEL: ≥ 1000 mg/kg/day

## C1N2CN3CN1CN(C2)C3 [Methenamine]
[6]; [18]
  LEL: 31 mg/kg/day
  LOAEL: > 31 mg/kg/day
  NEL: 15 mg/kg/day
  NOAEL: ≥ 31 mg/kg/day
[6]; [19]
  LEL: 31 mg/kg/day
  LOAEL: > 31 mg/kg/day
  NEL: 15 mg/kg/day
  NOAEL: ≥ 31 mg/kg/day

Source: EPA's ToxRefDB 2
